Data as given in patent US20200291082A1, “PREVENTION AND TREATMENT OF GRAFT-VERSUS-HOST-DISEASE WITH DEFENSINS” (priority 2017, published 2020).
Entries after “also recorded” stand apart in the source; their conditions may differ. No end group written: not given here.

Columns and labels:
[1] = tested on: Dextran Sodium Sulphate induced colitis; assay: prophylactic murine 10-day oral Dextran Sodium Sulphate induced colitis model, s.c. and i.v. hBD2 versus i.p. mouse anti TNF-α (Example 1); assay type: in vivo, C57BL/6 mice; settings: for histological score of distal colon: FIG. 9; for disease activity index (DAI): 10 days
Procedure: Anti-inflammatory effect of s.c. and i.v. administration of hBD2 versus intraperitoneal mouse anti TNF-α in a prophylactic, murine, 10-day, oral Dextran Sodium Sulphate induced colitis model.
70 male C57BL/6 mice housed in groups of five per cage were allocated to 7 different treatment groups. All animals had their drinking water supplemented with DSS 2% for 7 days to induce colitis resulting in significant inflammation and injury of the colonic tissue. The animals were treated with hBD2 dosed intravenously in the tail vein or subcutaneously under the dorsal skin, with mouse anti TNF-α intraperitoneally or PBS as vehicle for 10 days.
(§1) A disease activity index (DAI) scoring system was applied for clinical assessment (FIG. 7). The animals were sacrificed on day 10 and colon removed for histological assessment employing a histological scoring system (FIG. 8).

[2] = tested on: Trinitrobenzene Sulfonic Acid induced colitis; assay: prophylactic murine 8-day Trinitrobenzene Sulfonic Acid induced colitis model (Example 3); assay type: in vivo, BALB/cByJ mice
Procedure: Anti-inflammatory effect of s.c. administration of hBD2 versus s.c. prednisolone in a prophylactic murine, 8-day Trinitrobenzene Sulfonic Acid induced colitis model.
105 male BALB/cByJ mice housed in groups of five per cage were allocated to 7 different treatment groups. Colitis was induced by intracolonic administration of trinitrobenzene sulfonic acid on day 0 under light anaesthesia resulting in significant inflammation and injury of the colonic tissue. The animals were treated with hBD2 at four different dosing levels once daily (1 mg/kg, 0.3 mg/kg, 0.1 mg/kg, and 0.03 mg/kg) or Prednisolone 10 mg/kg once daily dosed subcutaneously under the dorsal skin or PBS as vehicle for 7 days.
as §1

[3] = tested on: gut microbiota in high fat diet murine model; assay: prophylactic treatment with defensins in murine high fat diet model, gut microbiota (Example 7); assay type: in vivo, mice
Excerpt: Protection and preservation of gut microbiota by prophylactic treatment with defensins. Mice: Mice were housed in trios, 4 cages per group. Feed intake was registered daily just before lights were turned off at 6 pm. Individual mice were subjected to experimental procedures in altered order both group and cage wise. Mice were kept at room temperature under a 12-hour light/dark cycle at SPF standard conditions. Diets: For dosing, the average weight was estimated to be 25 grams per mouse. Mice eat approximately 3 grams of feed per mouse per day. Treatment regime: Mice were fed either a high fat diet (HFD) or a low fat (LF) control diet. The HFD contained 4 subgroups; 1 hBD2, 1 HD5, 1 hBD2/HD5 and 1 standard HFD without supplementation of defensins (FIG. 3). Defensin concentration was 1,2 mg hBD2 per kg mouse per day. HD5 was given in equimolar concentration to hBD2. […] Microbial analyses were carried out to study the microbiota of the intestine. Longitudinal 16S characterization was conducted on 4 paired samples from 60 mice, 240 samples in total. Each mouse was sampled prior to diet change, 1 week post diet change, 4 weeks post diet change and at termination, thus ensuring a thorough characterization of the faecal microbiota as a result of defensin treatment.

[4] = tested on: acute graft versus host disease following stem cell transplantation; assay: prophylactic oral hBD-2 in murine model of acute graft versus host disease following stem cell transplantation (Example 13); assay type: in vivo, BALB/c mice; settings: for IL-1β from myeloid cells: CD11c+ dendritic cells and CD11b+ Ly6FG− cells; for infiltration with CD45+ leucocytes (FACS analysis): lamina propria of colon (FIG. 50: colon and small intestine); for intestinal T cell and myeloid cell infiltration: lamina propria of the colon (FIG. 51: colon and small intestine)
Procedure: To determine and assess the efficacy of prophylactic treatment with oral hBD-2 in a murine model of acute graft versus host disease following stem cell transplantation.
Treatment regime: 12 female BALB/c mice were irradiated with 4.5 Gy (2×498 sec) at intervals of at least 4 hours on day 0. Bone marrow was harvested: hind limbs harvested from 2 female WT C57BL/6 mice aseptically. Skeletal muscle was removed and epiphysis cut away. Lumen of bone flushed with PBS and cells pelleted and taken up. Harvest of T-cells: spleens from 2 female WT C57BL/6 mice were meshed through a 100 μM cell strainer into a PBS filled dish. Cells were taken up in PBS and transferred into a 50 mL falcon tube and spun down. Cells were taken up in 1 mL PBS and 20 μL of CD4 microbead+20 μL CD8 microbeads per spleen added for incubation for 20 min at 4 degrees C. Cells were washed with PBS and applied to MACS separation in order to positively select CD4+ and CD8+ cells. Positively selected T-cells were counted and taken up. Transplantation: directly after the second irradiation, all WT BALB/c recipient mice were injected with 5×1.000.000 BM cells (50 μL) i.v. into the retroorbital venous plexus under isoflurane anesthesia. 15 BALB/c mice were treated with 1.2 mg of hBD2/kg BW/day in 100 μL PBS per day vial oral gavage from day 0-10.
15 BALB/c mice received vehicle 100 μL PBS per day via oral gavage from day 0-10.
The mice were weighed daily for the initial 7 days and survival was monitored for 100 days.

[5] = tested on: bacteria at the surface of the intestinal mucosa; assay: anti microbial effect of orally administered defensins, mucin immunostaining and localization of bacteria by FISH (Example 16); assay type: in vivo; settings: compared with mice on low fat or western diet
Procedure: Anti microbial effect of orally administered defensins (HD5 and hBD-2).
Mucus immunostaining was paired with fluorescent in situ hybridization (FISH), as previously described in order to analyze bacteria localization at the surface of the intestinal mucosa. Briefly, colonic tissues (proximal colon, 2nd cm from the cecum) without fecal material were placed in methanol-Carnoy's fixative solution (60% methanol, 30% chloroform, 10% glacial acetic acid) for a minimum of 3 hours at room temperature. Tissues were then washed in methanol 2×30 min, ethanol 2×15 min, ethanol/xylene (1:1), 15 min and xylene 2×15 min, followed by embedding in Paraffin with a vertical orientation. Five pm sections were performed and dewax by preheating at 60° C. for 10 min, followed by xylene 60° C. for 10 min, xylene for 10 min and 99.5% ethanol for 10 minutes. Hybridization step was performed at 50° C. overnight with EUB338 probe (5′-GCTGCCTCCCGTAGGAGT-3′, with a 5′ labeling using Alexa 647) diluted to a final concentration of 10 μg/mL in hybridization buffer (20 mM Tris-HCl, pH 7.4, 0.9 M NaCl, 0.1% SDS, 20% formamide). After washing 10 min in wash buffer (20 mM Tris-HCl, pH 7.4, 0.9 M NaCl) and 3×10 min in PBS, PAP pen (Sigma-Aldrich) was used to mark around the section and block solution (5% fetal bovine serum in PBS) was added for 30 min at 4° C. […]

[6] = colon, prophylactic treatment with hBD2
[7] = oral hBD2 1.2 mg/kg/day day 0-10, 15 mice
[8] = oral hBD-2 for 10 days versus PBS

What does the source list for “human beta defensin 2 (GIGDPVTCLKSGAICHPVFCPRRYKQIGTCGLPGTKCCKKP; not fully specified (bridges); ends and bridges not checked; listed as Homo sapiens) [hBD2]”?
histological score of distal colon ([1]; hBD2 0.1 mg/kg compared with mouse anti TNF-α): statistically significant superiority; histological score of distal colon ([1]; subcutaneous compared with i.v. hBD2 administration): superiority over i.v. administration; disease activity index (DAI) ([1]; hBD2 intravenous administration): significant reduction of DAI; histology score ([1]; hBD2 s.c. twice daily, colon day 10): highly statistical significant effect on histology score; disease activity index (DAI) ([1]; hBD2 subcutaneous route, once or twice daily): most significant effect; histological score ([2]; FIG. 13, 0.03 and 0.1 mg/kg hBD2 (Group E and F), on par with prednisolone 10 mg/kg): statistical significant effect; histological score ([2]; Prednisolone 10 mg/kg s.c. once daily, hBD2 at 0.1, 0.3 and 1 mg/kg s.c. once daily): highly statistically significant clinical effect on histological score; body weight ([2]; hBD2 0.03 and 0.1 mg/kg OD s.c.): highly statistically significant increase in body weight; weight gain ([3]; HFD plus hBD2 (1,2 mg per kg per day) versus HFD reference group, 10 week study period): gained significantly less weight; abundance of Barnesiella [3, 6]: statistically significant increase in abundance of Barnesiella; abundance of Lactobacillaceae [3, 6]: trend towards lower abundance; steatosis (intra hepatocytic fat accumulation) ([3]; liver, HFD mice with prophylactic oral hBD-2 1.2 mg/kg daily, 1.2 mg/kg): minimal intra hepatocyte fat accumulation; also recorded: minimal steatosis; microbial presence and abundance (unifrac analysis) ([3]; prophylactic oral defensins in high fat diet): affected primarily the microbial presence; Th1 cytokine production (TNF-α and IFN-γ in CD4 and CD8 T cells) ([4]; FACS analysis of the spleen): reduced Th 1 cytokine production; also recorded: reduced Th1 cytokine production; neutrophils ([4]; FACS analysis of the spleen): Reduced proportion of neutrophils; also recorded: reduced number of neutrophils; IL-1β from myeloid cells ([4]; FACS analysis of the spleen): decrease the production of IL-1β; IL-1β from myeloid cells ([4]; FACS analysis of the spleen, listed as hBD-2): reduction of IL-1β from myeloid cells; also recorded: Reduced IL-1β production; weight loss ([4]; first 7 days following bone marrow transplantation): lost statistically significantly less weight; survival (Kaplan-Meyer plot) ([4]; hBD2 1.2 mg/kg/day day 0 to day 10 versus vehicle, n=15): dramatically increased survival; microarray analysis of colon samples ([4]; hBD-2 treated group versus PBS): decreased inflammation, leucocyte and myeloid cell migration and tissue remodelling; infiltration with CD45+ leucocytes (FACS analysis) [4]: reduced the infiltration; infiltration with CD45+ leucocytes (FACS analysis) ([4]; listed as hBD-2): Reduced CD45+ leucocyte cell migration; intestinal T cell and myeloid cell infiltration [4]: reduced; intestinal T cell and myeloid cell infiltration ([4]; listed as hBD-2): Reduction of intestinal T cell and myeloid cell infiltration; mice still alive by day 100 [4, 7]: 8 mice; share of treated mice that had died by day 35 [4, 7]: less than 30%; treated mice that had died by day 35 ([4]; oral hBD2 1.2 mg/kg/day day 0-10, 15 mice, all 15 vehicle mice had died by day 35): 4; histology score of the colon [4, 8]: highly statistically lower; also recorded: statistically significant reduction of histology score; histology score of the liver [4, 8]: highly statistically lower; also recorded: statistically significant reduction of histology score; histology score of the small intestine [4, 8]: highly statistically lower; also recorded: statistically significant reduction of histology score; TNF-α concentration ([4]; serum (FIG. 52a)): reduction; IL-6 concentration ([4]; serum (FIG. 52b)): reduction; IL-10 concentration ([4]; serum (FIG. 52c)): increased concentration of IL-10; lysis zone, distance between intestinal wall and bacterial population [5]: profound effect on the distance
